# In US20220017541A1, “INHIBITORS OF ARGINASE” (Black Belt Tx Ltd, priority 2018, published 2022):
# Target: T1, arginase activity in intact BMM-M2 cells (Mus musculus, UniProt Q61176)
# T1 construct: endogenous in cells; host or cells: bone-marrow derived macrophages from male C57BL/6 mice, polarised to M2 with IL-4
# T1 sequence (Q61176 1-323): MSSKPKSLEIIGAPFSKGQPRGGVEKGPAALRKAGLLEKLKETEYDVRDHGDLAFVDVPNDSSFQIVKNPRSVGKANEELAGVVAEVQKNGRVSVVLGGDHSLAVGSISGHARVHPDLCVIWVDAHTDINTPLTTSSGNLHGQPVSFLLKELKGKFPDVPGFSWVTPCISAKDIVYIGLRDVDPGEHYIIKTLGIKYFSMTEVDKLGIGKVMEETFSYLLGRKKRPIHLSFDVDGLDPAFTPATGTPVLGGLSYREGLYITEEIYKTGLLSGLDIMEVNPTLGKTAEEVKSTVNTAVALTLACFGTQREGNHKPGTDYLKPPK
# Experiment: Cell-based arginase assay: urea production by cultured BMM-M2 cells
# Details: 10 μM test compound, 24 h
# Method: Murine bone-marrow derived macrophages (BMM) represent a convenient in vitro model that enables differentiation of these cells towards M1 or M2 macrophages. Briefly, male C57BL/6 mice 7-8 weeks old were euthanized by carbon dioxide asphyxiation. Femur and tibiae bones were removed under aseptic conditions and collected in a plate containing sterile ice-cold PBS 1×. After sterilization of bones in 70% ethanol during 1 min, bones were placed into a clean Petri dish containing fresh sterile ice-cold PBS 1×. The ends of each bone were cut and the marrow cavity was flushed using forceps and syringes filled with pre-warmed complete α-MEM growing medium (α-MEM without red phenol (Life Technologies, Cat. No. #41061-029) supplemented with 10% FBS, penicillin and streptomycin). Bone marrow (BM) cells were harvested in a 15 ml clean tube and centrifuged at 400 g for 8 min at RT. Supernatant was discarded and BM pellet was re-suspended in 5 ml Ammonium-Chloride-Potassium (ACK) buffer for 5 minutes at RT to lysis RBC. BM cell suspension was centrifuged at 400 g for 8 min at RT. Supernatant was discarded and BM cell pellet was re-suspended in complete α-MEM growing medium and passed through a 70 μm cell restrainer to eliminate solid contaminates and cellular aggregates. BM cells were seeded in 8 ml of complete α-MEM growing medium supplemented with 100 ng/ml recombinant mouse M-CSF (R&D Systems, Cat. No. #416-ML-050) in 100-mm dishes. BM cells were cultured overnight to get rid of contaminating stromal cells in a humidified incubator with 5% CO2 at 37° C. At the following day, non-adherent cells were collected in a clean 15-ml tube and centrifuged at 400 g for 8 min at RT. Cell pellet was re-suspended in complete α-MEM growing medium and counted using a hemocytometer Neubauer's chamber. Hematopoietic precursor cells were differentiated into BMM in presence of complete α-MEM growing medium supplemented 50 ng/ml M-CSF for 3 days. Finally to polarize BMM towards M2 phenotype, cells were incubated in presence 20 ng/ml of recombinant mouse IL-4 (R&D Systems, Cat. No. #404-ML-010) added to fresh complete α-MEM growing medium supplemented 50 ng/ml M-CSF for 24 h.
# At the day of the experiment, BMM-M2 were treated for 24 h with vehicle (DMSO) or compounds of the invention at 1 and 10 μM prepared in fresh complete α-MEM growing medium supplemented 50 ng/ml M-CSF, 20 ng/ml IL-4 and 10 mM L-arginine (Cat. No. #A5006, Sigma Aldrich). At the next day, 70 μl aliquots of each treated culture media (supernatants) were transferred into a clear 96-well plate. Measurements of urea produced by BMM-M2 were performed using the adapted protocol detailed in Example B1. Wells without BMM-M2 containing only treatment media (vehicle) were used to determine the zero cell-derived urea production (blank). All treatments were carried out in triplicates.
# The inhibition of urea production was calculated subtracting the absorbance from the blank to the absorbance from all treatments and it was expressed as the percentage of the absorbance from the reaction containing the test article treatment with respect to the absorbance from vehicle treatment (maximum of urea production).
row,Compound,Inh. urea production @10 μM (%)
1,"CC(c1ccccc1)N1CCC(C(N)(CCCCB(O)O)C(=O)O)CC1 (stereo not shown) [Compound 9, 2-amino-6-borono-2-(1-(1-phenylethyl)piperidin-4-yl)hexanoic acid]",++ (25% < % inhibition < 15% at 10 μM test compound)
2,"CC1(C)OB(CCCCC(N)(C(=O)O)C2CCN(C3CCCc4ccccc43)CC2)OC1(C)C (stereo not shown) [Compound 77, 2-amino-2-(1-(1,2,3,4-tetrahydronaphthalen-1-yl)piperidin-4-yl)-6-(4,4,5,5-tetramethyl-1,3,2-dioxaborolan-2-yl)hexanoic acid]",++ (25% < % inhibition < 15% at 10 μM test compound)

# Same assay, conditions: 10 μM test compound, 24 h, 10 µM
row,Compound,Inh. urea production @10 μM (%)
1,"NC(CCCCB(O)O)(C(=O)O)C1CCN(C2CCc3ccccc32)CC1 (single isomer, unassigned) [Compound 2, 2-amino-6-borono-2-(1-(2,3-dihydro-1H-inden-1-yl)piperidin-4-yl)hexanoic acid]",+++ (% inhibition > 25 at 10 μM test compound)
2,"NC(CCCCB(O)O)(C(=O)O)C1CCN(C2CCCc3ccccc32)CC1 (single isomer, unassigned) [Compound 6, 2-amino-6-borono-2-(1-(1,2,3,4-tetrahydronaphthalen-1-yl)piperidin-4-yl)hexanoic acid]",+ (% inhibition < 15 at 10 μM)
3,"CC(c1ccccc1)N1CCC(C(N)(CCCCB(O)O)C(=O)O)CC1 (single isomer, unassigned) [Compound 11, 2-amino-6-borono-2-(1-(1-phenylethyl)piperidin-4-yl)hexanoic acid]",+ (% inhibition < 15 at 10 μM)

# Same assay, conditions: 10 μM test compound, 24 h, read-out: Inh. urea production @10 μM (%)
row,Compound,inhibition at 10 µM
1,"NC(CCCCB(O)O)(C(=O)O)C1CCN(C2CCc3ccccc32)CC1 (single isomer, unassigned) [Compound 3, 2-amino-6-borono-2-(1-(2,3-dihydro-1H-inden-1-yl)piperidin-4-yl)hexanoic acid]",< 15%
2,"NC(CCCCB(O)O)(C(=O)O)C1CCN(C2CCCc3ccccc32)CC1 (single isomer, unassigned) [Compound 4, 2-amino-6-borono-2-(1-(1,2,3,4-tetrahydronaphthalen-1-yl)piperidin-4-yl)hexanoic acid]",> 25%
3,"NC(CCCCB(O)O)(C(=O)O)C1CCN(C2CCCc3ccccc32)CC1 (single isomer, unassigned) [Compound 5, 2-amino-6-borono-2-(1-(1,2,3,4-tetrahydronaphthalen-1-yl)piperidin-4-yl)hexanoic acid]",> 25%
4,"CC(c1ccccc1)N1CCC(C(N)(CCCCB(O)O)C(=O)O)CC1 (single isomer, unassigned) [Compound 10, 2-amino-6-borono-2-(1-(1-phenylethyl)piperidin-4-yl)hexanoic acid]",> 25%
5,"NC(CCCCB(O)O)(C(=O)O)C1CCN(C2CCc3cc(Cl)ccc32)CC1 (single isomer, unassigned) [Compound 14, 2-amino-6-borono-2-[1-(5-chloroindan-1-yl)-4-piperidyl]hexanoic acid]",> 25%
6,"NC(CCCCB(O)O)(C(=O)O)C1CCN(C2CCCc3cc(Cl)ccc32)CC1 (single isomer, unassigned) [Compound 17, 2-amino-6-borono-2-(1-(6-chloro-1,2,3,4-tetrahydronaphthalen-1-yl)piperidin-4-yl)hexanoic acid]",> 25%
7,"CNC(CCCCB(O)O)(C(=O)O)C1CCN(C2CCCc3ccccc32)CC1 (single isomer, unassigned) [Compound 79, 6-borono-2-(methylamino)-2-(1-(1,2,3,4-tetrahydronaphthalen-1-yl)piperidin-4-yl)hexanoic acid]",> 25%
8,"NC(CCCCB(O)O)(C(=O)O)C1CCN(C2CCCc3ccc(F)cc32)CC1 (single isomer, unassigned) [Compound 83, 2-amino-6-borono-2-(1-(7-fluoro-1,2,3,4-tetrahydronaphthalen-1-yl)piperidin-4-yl)hexanoic acid]",> 25%
9,"NC(CCCCB(O)O)(C(=O)O)C1CCN(C2CCCCc3ccccc32)CC1 (single isomer, unassigned) [Compound 84, 2-amino-6-borono-2-(1-(6,7,8,9-tetrahydro-5H-benzo[7]annulen-5-yl)piperidin-4-yl)hexanoic acid]",> 25%
10,"NC(CCCCB(O)O)(C(=O)O)C1CCN(C2CCc3cc(C(F)(F)F)ccc32)CC1 (single isomer, unassigned) [Compound 85, 2-amino-6-borono-2-[1-[5-(trifluoromethyl)indan-1-yl]-4-piperidyl]hexanoic acid]",> 25%
11,"NC(CCCCB(O)O)(C(=O)O)C1CCN(C2CCc3ccccc32)CC1 (stereo not shown) [Compound 1, 2-amino-6-borono-2-(1-(2,3-dihydro-1H-inden-1-yl)piperidin-4-yl)hexanoic acid]",> 25%
